Read-outs that look alike come from different tables or passages of the source.
Biological target: hERG K+ channels (Homo sapiens, UniProt Q12809)
[1] = Patchliner, CHO-hERG cells, physiological temperature

Sequence of hERG K+ channels (Q12809 whole entry): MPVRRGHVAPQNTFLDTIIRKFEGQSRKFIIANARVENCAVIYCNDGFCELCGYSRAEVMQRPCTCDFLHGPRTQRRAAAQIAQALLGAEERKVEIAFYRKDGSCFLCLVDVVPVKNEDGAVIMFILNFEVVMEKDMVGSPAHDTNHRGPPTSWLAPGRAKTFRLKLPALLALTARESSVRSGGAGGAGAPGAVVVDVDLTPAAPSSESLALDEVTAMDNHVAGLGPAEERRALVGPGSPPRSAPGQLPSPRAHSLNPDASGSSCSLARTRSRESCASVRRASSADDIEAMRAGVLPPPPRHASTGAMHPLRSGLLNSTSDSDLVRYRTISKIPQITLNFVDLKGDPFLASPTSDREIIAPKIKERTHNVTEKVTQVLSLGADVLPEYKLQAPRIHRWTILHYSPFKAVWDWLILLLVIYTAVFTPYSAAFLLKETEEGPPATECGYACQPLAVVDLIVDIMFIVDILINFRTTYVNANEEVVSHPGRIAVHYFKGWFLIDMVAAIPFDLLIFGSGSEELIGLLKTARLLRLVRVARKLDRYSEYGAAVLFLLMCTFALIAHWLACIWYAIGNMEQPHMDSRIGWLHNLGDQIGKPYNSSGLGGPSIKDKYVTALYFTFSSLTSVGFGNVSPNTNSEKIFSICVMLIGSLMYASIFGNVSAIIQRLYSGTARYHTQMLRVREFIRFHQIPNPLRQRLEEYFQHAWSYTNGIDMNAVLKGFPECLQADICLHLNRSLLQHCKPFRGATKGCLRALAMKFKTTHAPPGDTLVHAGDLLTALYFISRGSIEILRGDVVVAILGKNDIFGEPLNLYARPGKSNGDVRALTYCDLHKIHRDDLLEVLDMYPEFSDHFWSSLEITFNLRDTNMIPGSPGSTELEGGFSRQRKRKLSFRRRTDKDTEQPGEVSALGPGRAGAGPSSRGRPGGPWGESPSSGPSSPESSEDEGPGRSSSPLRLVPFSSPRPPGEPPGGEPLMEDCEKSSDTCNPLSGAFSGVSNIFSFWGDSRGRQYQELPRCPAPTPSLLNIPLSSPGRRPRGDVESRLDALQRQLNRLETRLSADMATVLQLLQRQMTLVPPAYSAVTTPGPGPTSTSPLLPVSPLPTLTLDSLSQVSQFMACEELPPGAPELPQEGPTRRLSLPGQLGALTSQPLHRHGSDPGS

Structure (SMILES) | effect on the hERG current (in words) [1] | effect on the hERG current (in words) | also measured
CC(C)Cc1ccc(C(C)C(=O)O)cc1 (centres unmarked) [Ibuprofen] | did not affect the hERG current up to the highest concentration tested | – | –
COc1cc(N)c(Cl)cc1C(=O)NC1CCN(CCCOc2ccc(F)cc2)CC1OC (centres unmarked) [Cisapride] | – | – | effect on the hERG current (in words) (human): IC50 values in the low and mid-nanomolar range
CC(C)NCC(O)c1ccc(NS(C)(=O)=O)cc1 (racemic) [D,L-Sotalol] | – | intermediate effect on the hERG current | –
C[C@H](CS)C(=O)N1CCC[C@H]1C(=O)O [Captopril] | did not affect the hERG current up to the highest concentration tested | – | –
Cc1cc2c(s1)Nc1ccccc1N=C2N1CCN(C)CC1 [Olanzapine] | – | intermediate effect on the hERG current | –
